Source: patent US7442702B2, “Prostaglandin agonists” (priority 1997, dated 2008)

How the values were obtained:
[1] = test system: expression of Bone Morphogenetic Protein 7 (BMP-7) in 293S cells transfected with EP2; test: Kidney regeneration assay: BMP-7 expression (Northern blot) in 293S cells transfected with EP2; type: cell-based, human; conditions: EP2 293S cells, 10^−6M, RNA extracted at 8, 16 and 24 hours
Procedure: (§1) Methods: 293S and EP293S cells are grown in Dulbecco's Modified Egale medium (DMEM, Gibco, BRL; Gaithersburg, Md.). […] Cells are harvested and RNA is extracted at 8, 16 and 24 hours. Northern blot analysis of total RNA ([…]) is carried out by probing the blots with ^32P-labeled BMP-7 probe. The blots are normalized for RNA loading by hybridization with ^32P-labeled 18s ribosomal RNA probe. […] Given the known role of BMP-7 in kidney regeneration and the ability of an prostaglandin agonist to induce BMP-7 expression in 293S kidney cells in a time and receptor specific manner indicates a role for prostaglandin agonist in kidney regeneration.

[2] = test system: expression of Bone Morphogenetic Protein 7 (BMP-7) in wild type 293S cells; test: Kidney regeneration assay: BMP-7 expression (Northern blot) in wild type 293S cells; type: cell-based, human; conditions: parental 293S cell line, 10^−6M, RNA extracted at 8, 16 and 24 hours
Procedure: as §1

CCCCC[C@H](O)/C=C/[C@H]1[C@H](O)CC(=O)[C@@H]1C/C=C\CCCC(=O)O [PGE2, Prostaglandin E2]
induction of expression of BMP-7 [1]: induce the expression of BMP-7 in the EP2 293S cells in a time dependent manner
induction of expression of BMP-7 [2]: generally not observed
